# Assay results from patent US20230146675A1, “PYRIMIDO[5,4-d]PYRIMIDINE DERIVATIVES AS ENT INHIBITORS FOR THE TREATMENT OF CANCERS, AND COMBINATION THEREOF WITH ADENOSINE RECEPTOR ANTAGONISTS” (ITEOS BELGIUM SA, priority 2020, published 2023).
# pIC50: −log10 of the molar value.
# Biological target: T1, human ENT1 (Homo sapiens, UniProt Q99808)
# T1 sequence (Q99808 1-456): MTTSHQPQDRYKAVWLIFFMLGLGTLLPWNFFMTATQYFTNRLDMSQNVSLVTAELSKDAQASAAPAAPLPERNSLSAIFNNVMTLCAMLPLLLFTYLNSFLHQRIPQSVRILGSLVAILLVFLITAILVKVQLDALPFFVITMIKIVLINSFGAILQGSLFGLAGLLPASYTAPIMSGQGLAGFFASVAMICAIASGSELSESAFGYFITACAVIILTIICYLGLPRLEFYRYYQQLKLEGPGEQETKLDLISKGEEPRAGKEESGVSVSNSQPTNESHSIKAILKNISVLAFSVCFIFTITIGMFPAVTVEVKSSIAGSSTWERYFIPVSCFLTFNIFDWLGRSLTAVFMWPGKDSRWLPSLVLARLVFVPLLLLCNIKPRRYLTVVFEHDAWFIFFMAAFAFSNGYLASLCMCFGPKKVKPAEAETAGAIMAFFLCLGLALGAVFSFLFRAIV
# Experiment: ENT1 binding assay (competition with Sahenta-DY647 on JAR cells)
# Design: JAR cells expressing ENT1 were bought from ATCC; host or cells: JAR cells
# Conditions: binned IC50
# Outline: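 JAR cells were incubated with test compounds and the fluorescent ligand Sahenta-DY647 in competition. Plates were washed twice by centrifugation (4 min, 400 rcf, 4 °C). Binding potency was derived from the final fluorescence.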
row,Compound,pIC50
1,"COCCN(Cc1ccc(C(=O)O)c(F)c1)c1nc(N2CCN(C)C(=O)C2)c2nc(N(CCOC)CCOC)nc(N3CCC(OC)CC3)c2n1 [Compound 336, 4-(((6-(bis(2-methoxyethyl)amino)-8-(4-methoxypiperidin-1-yl)-4-(4-methyl-3-oxopiperazin-1-yl)pyrimido[5,4-d]pyrimidin-2-yl)(2-methoxyethyl)amino)methyl)-2-fluorobenzoic acid]",> 7.00
2,"COCCN(CCOC)c1nc(N2CCN(C)C(=O)C2)c2nc(N3CCn4cncc4C3)nc(N3CCC(OC)CC3)c2n1 [Compound 298, 4-(2-(bis(2-methoxyethyl)amino)-6-(5,6-dihydroimidazo[1,5-a]pyrazin-7(8H)-yl)-8-(4-methoxypiperidin-1-yl)pyrimido[5,4-d]pyrimidin-4-yl)-1-methylpiperazin-2-one]",6.00 to 6.30
3,"COCCN(CCOC)c1nc(N2CCN(c3ncn(C)n3)CC2)c2nc(N(CCOC)CCOC)nc(N(C)Cc3cccc(S(C)(=O)=O)c3)c2n1 [Compound 246, N2,N2,N6,N6-tetrakis(2-methoxyethyl)-N4-methyl-8-(4-(1-methyl-1H-1,2,4-triazol-3-yl)piperazin-1-yl)-N4-(3-(methylsulfonyl)benzyl)pyrimido[5,4-d]pyrimidine-2,4,6-triamine]",6.00 to 6.30
4,"COCCN(CCOC)c1nc(N2CCC(OC)CC2)c2nc(N(CCOC)CCOC)nc(N3CCC(COC)CC3)c2n1 [Compound 76, N2,N2,N6,N6-tetrakis(2-methoxyethyl)-4-(4-(methoxymethyl)piperidin-1-yl)-8-(4-methoxypiperidin-1-yl)pyrimido[5,4-d]pyrimidine-2,6-diamine]",6.00 to 6.30
5,"COCCN(CCOC)c1nc(N2CCC(OC)CC2)c2nc(N(CCOC)CCOC)nc(NCc3ccncc3)c2n1 [Compound 61, N2,N2,N6,N6-tetrakis(2-methoxyethyl)-8-(4-methoxypiperidin-1-yl)-N4-(pyridin-4-ylmethyl)pyrimido[5,4-d]pyrimidine-2,4,6-triamine]",6.00 to 6.30
6,"COCCN(CCOC)c1nc(N2CCN(C)C(=O)C2)c2nc(N(CCOC)CCOC)nc(NCc3cccc(Cl)c3)c2n1 [Compound 208, 4-(2,6-bis(bis(2-methoxyethyl)amino)-8-((3-chlorobenzyl)amino)pyrimido[5,4-d]pyrimidin-4-yl)-1-methylpiperazin-2-one]",> 7.00
7,"COCCN(CCOC)c1nc(N2CCC(C)(OC)CC2)c2nc(N(CCOC)CCOC)nc(N3CCC(C)(OC)CC3)c2n1 [Compound 201, 4,8-bis(4-methoxy-4-methylpiperidin-1-yl)-N2,N2,N6,N6-tetrakis(2-methoxyethyl)pyrimido[5,4-d]pyrimidine-2,6-diamine]",6.30 to 7.00
8,"COCCN(CCOC)c1nc(N2CCN(c3ncn(C)n3)CC2)c2nc(N(CCOC)CCOC)nc(N(C)Cc3cccc(F)c3)c2n1 [Compound 241, N4-(3-fluorobenzyl)-N2,N2,N6,N6-tetrakis(2-methoxyethyl)-N4-methyl-8-(4-(1-methyl-1H-1,2,4-triazol-3-yl)piperazin-1-yl)pyrimido[5,4-d]pyrimidine-2,4,6-triamine]",6.30 to 7.00
9,"COCCN(CCOC)c1nc(N2CCN(c3ncccn3)CC2)c2nc(N(CCOC)CCOC)nc(N3CCC(OC)CC3)c2n1 [Compound 119, N2,N2,N6,N6-tetrakis(2-methoxyethyl)-4-(4-methoxypiperidin-1-yl)-8-(4-(pyrimidin-2-yl)piperazin-1-yl)pyrimido[5,4-d]pyrimidine-2,6-diamine]",6.00 to 6.30
10,"COCCN(CCOC)c1nc(N2CCC(OC)CC2)c2nc(N(CCOC)CCOC)nc(NCCc3cccnc3)c2n1 [Compound 63, N2,N2,N6,N6-tetrakis(2-methoxyethyl)-8-(4-methoxypiperidin-1-yl)-N4-(2-(pyridin-3-yl)ethyl)pyrimido[5,4-d]pyrimidine-2,4,6-triamine]",6.30 to 7.00
11,"COCCCCNc1nc(N(CCOC)CCOC)nc2c(N3CCC(OC)CC3)nc(N(CCOC)CCOC)nc12 [Compound 181, N4-(4-methoxybutyl)-N2,N2,N6,N6-tetrakis(2-methoxyethyl)-8-(4-methoxypiperidin-1-yl)pyrimido[5,4-d]pyrimidine-2,4,6-triamine]",6.00 to 6.30
12,"COCCN(CCOC)c1nc(N2CCC(OC)CC2)c2nc(N(CCOC)CCOC)nc(NCc3ccc(OC)c(OC)c3)c2n1 [Compound 170, N4-(3,4-dimethoxybenzyl)-N2,N2,N6,N6-tetrakis(2-methoxyethyl)-8-(4-methoxypiperidin-1-yl)pyrimido[5,4-d]pyrimidine-2,4,6-triamine]",> 7.00
13,"COCCN(CCOC)c1nc(N2CCN(C)C(=O)C2)c2nc(N3CCN(S(C)(=O)=O)CC3)nc(N3CCC(OC)CC3)c2n1 [Compound 279, 4-(2-(bis(2-methoxyethyl)amino)-8-(4-methoxypiperidin-1-yl)-6-(4-(methylsulfonyl)piperazin-1-yl)pyrimido[5,4-d]pyrimidin-4-yl)-1-methylpiperazin-2-one]",6.30 to 7.00
14,"COCCN(CCOC)c1nc(N2CCOC(C)C2)c2nc(N(CCOC)CCOC)nc(N3CCC(OC)CC3)c2n1 (centres unmarked) [Compound 113, N2,N2,N6,N6-tetrakis(2-methoxyethyl)-4-(4-methoxypiperidin-1-yl)-8-(2-methylmorpholino)pyrimido[5,4-d]pyrimidine-2,6-diamine]",6.30 to 7.00
15,"COCCN(CCOC)c1nc(N2CCC(OC)CC2)c2nc(N(CCOC)CCOC)nc(N(C)Cc3ccccn3)c2n1 [Compound 73, N2,N2,N6,N6-tetrakis(2-methoxyethyl)-8-(4-methoxypiperidin-1-yl)-N4-methyl-N4-(pyridin-2-ylmethyl)pyrimido[5,4-d]pyrimidine-2,4,6-triamine]",6.30 to 7.00
16,"COCCN(CCOC)c1nc(N2CCN(C)C(=O)C2)c2nc(N(CCOC)Cc3ccc(OC)c(OC)c3OC)nc(N3CCC(OC)CC3)c2n1 [Compound 303, 4-(2-(bis(2-methoxyethyl)amino)-6-((2-methoxyethyl)(2,3,4-trimethoxybenzyl)amino)-8-(4-methoxypiperidin-1-yl)pyrimido[5,4-d]pyrimidin-4-yl)-1-methylpiperazin-2-one]",> 7.00
17,"COCCN(CCOC)c1nc(N2CCN(C)C(=O)C2)c2nc(N(CCOC)CCOC)nc(N(C)Cc3cccc(Cl)c3)c2n1 [Compound 234, 4-(2,6-bis(bis(2-methoxyethyl)amino)-8-((3-chlorobenzyl)(methyl)amino)pyrimido[5,4-d]pyrimidin-4-yl)-1-methylpiperazin-2-one]",> 7.00
18,"COCCN(CCOC)c1nc(N2CCC(OC)CC2)c2nc(N(CCOC)CCOC)nc(NCCCc3ccccn3)c2n1 [Compound 177, N2,N2,N6,N6-tetrakis(2-methoxyethyl)-8-(4-methoxypiperidin-1-yl)-N4-(3-(pyridin-2-yl)propyl)pyrimido[5,4-d]pyrimidine-2,4,6-triamine]",6.00 to 6.30
19,"COCCN(CCOC)c1nc(N2CCS(=O)(=O)CC2)c2nc(N(CCOC)CCOC)nc(N3CCC(OC)CC3)c2n1 [Compound 77, 4-(2,6-bis(bis(2-methoxyethyl)amino)-8-(4-methoxypiperidin-1-yl)pyrimido[5,4-d]pyrimidin-4-yl)thiomorpholine 1,1-dioxide]",> 7.00
20,"COCCN(CCOC)c1nc(N2CCN(C)C(=O)C2)c2nc(N(CCOC)CCOC)nc(N(C)Cc3cccc(C(N)=O)c3)c2n1 [Compound 240, 3-(((2,6-bis(bis(2-methoxyethyl)amino)-8-(4-methyl-3-oxopiperazin-1-yl)pyrimido[5,4-d]pyrimidin-4-yl)(methyl)amino)methyl)benzamide]",6.30 to 7.00
